From patent US20250273333A1, “Methods and Apparatus for Diagnosis of Progressive Kidney Function Decline Using a Machine Learning Model” (ICAHN SCHOOL OF MEDICINE AT MOUNT SINAI, priority 2020, published 2025)
Several values for one entry are separate records, joined by “and”; a condition that tells them apart may be missing. Identical values can stand only once.

Assays:
Format in all cases: in vivo, human
[1] = system: participants with type 2 diabetes and prevalent DKD; experiment: CANVAS trial post hoc analysis: composite kidney outcome, canagliflozin vs placebo, by KidneyIntelX risk strata; settings: for incidence of the composite kidney outcome: canagliflozin arm
Method: (§1) Blood and urine samples for exploratory biomarker research can be stored during the CANVAS trial. In some instances, participants can be randomly assigned using a central web-based response system in a 1:1:1 ratio to treatment with 100 mg canagliflozin, 300 mg canagliflozin, or matching placebo. In some instances, participants can be assigned to treatment with canagliflozin or placebo followed for a median of 6.1 years. All participants, care providers, trial staff, and outcome assessors can be blinded to treatment allocation for the duration of the study. KidneyIntelX algorithm can be indicated for individuals with type 2 diabetes and prevalent DKD, defined by an eGFR ≥30 to 59.9 ml/min/1.73 m2 (G3a and G3b) or those with eGFR ≥60 ml/min/1.73 m2 with a UACR ≥30 mg/g to assess the risk for progressive decline in kidney function within a time period (e.g., 5 years). Thus, for analyses, the subgroup of the CANVAS population can be restricted to meet criteria for prevalent DKD at a time of enrollment.
(§2) A composite kidney outcome for such post hoc analysis can be defined as: A) progressive decline in kidney function (rapid kidney function decline (e.g., RKFD; with eGFR decline of ≥5 ml/min/year)); B) a sustained 40% decline of eGFR; or C) kidney failure defined as an eGFR <15 mL/min/1.73 m^2 or need for dialysis or kidney transplantation. In CANVAS, eGFR measurements were available at baseline, 6 weeks and annually. Since hemodynamic effects of SGLT2i on acute changes in eGFR, the anchor/baseline to define progressive decline in kidney function and 40% decline in eGFR for participants in the canagliflozin arm can be the eGFR value at 6 weeks. In some instances, when the eGFR value meet ≥40% decline from baseline only on the last eGFR obtained in the CANVAS protocol, then the event can be adjudicated by a blinded adjudication committee to determine qualification as a valid event. In some instances, eGFR slopes can be determined by linear mixed models.
Continuous baseline variables with normal distributions can be reported as means with standard deviations (SDs). Variables with skewed distributions can be reported as median values with interquartile range (IQRs) and can be natural logarithm transformed before analysis. Furthermore, categorical variables can be reported as percentages. Risk values can be calculated by the KidneyIntelX (using the diagnosis device 101) on the participants in the placebo and canagliflozin arms of CANVAS with prevalent DKD, with the inputs as per the currently commercially available test which include the following: baseline TNFR-1, TNFR-2 and KIM-1 levels, TNFR-2/TNFR-1 ratio, KIM-1/TNFR-1 ratio, eGFR, UACR, HbA1C, systolic BP, AST, platelets, and serum calcium. The risk score cutoffs that were previously validated can applied to the CANVAS participants with DKD and available baseline plasma. Each individual can be allocated a predicted probability of the composite outcome using the baseline inputs as per the risk value generated by the KidneyIntelX algorithm and a continuous KidneyIntelX score between 5 and 100 in increments of 5. For example, consistent with the pre-defined commercial cut offs, participants with a risk value between 5 and 45 can be classified as “low risk”, between 50 and 85 can be classified as “intermediate risk”, and those with a risk value between 90 and 100 can be classified as “high risk”. Therefore, by determining proportion experiencing the composite kidney event within the categorical risk strata and used logistic regression, the relative odds of the endpoint for high vs. low risk and intermediate risk score strata can be determined.
Proportion of participants that experienced composite kidney outcome by KidneyIntelX algorithm risk strata can be compared to a proportion as classified by participants' Kidney Disease Improving Global Outcomes (KDIGO) KDIGO risk strata based on their baseline eGFR and UACR value. […]

[2] = system: participants with type 2 diabetes and prevalent DKD; experiment: CANVAS trial post hoc analysis: chronic eGFR slope, canagliflozin vs placebo, by risk strata
Method: as §1, §2
To explore whether baseline KidneyIntelX scores modified the treatment effect of canagliflozin versus placebo on the composite kidney outcome and chronic eGFR compared to the treatment effect as per the baseline KDIGO risk strata, tests for heterogeneity can be performed by adding interaction terms between KidneyIntelX or KDIGO and randomized treatment assignment to the relevant logistic regression models for the categorical outcome and mixed linear models for the eGFR slopes. The treatment effect of canagliflozin versus placebo on KidneyIntelX risk scores over time can be assessed by calculating the difference of change in risk values generated by the KidneyIntelX algorithm (e.g., using the diagnosis device 101) between treatment arms using mixed linear models. […]

[3] = system: participants with type 2 diabetes and prevalent DKD; experiment: CANVAS trial post hoc analysis: KidneyIntelX risk score over time, canagliflozin vs placebo
Method: Blood and urine samples for exploratory biomarker research can be stored during the CANVAS trial. In some instances, participants can be randomly assigned using a central web-based response system in a 1:1:1 ratio to treatment with 100 mg canagliflozin, 300 mg canagliflozin, or matching placebo. In some instances, participants can be assigned to treatment with canagliflozin or placebo followed for a median of 6.1 years. All participants, care providers, trial staff, and outcome assessors can be blinded to treatment allocation for the duration of the study. […]
Continuous baseline variables with normal distributions can be reported as means with standard deviations (SDs). […] Risk values can be calculated by the KidneyIntelX (using the diagnosis device 101) on the participants in the placebo and canagliflozin arms of CANVAS with prevalent DKD, with the inputs as per the currently commercially available test which include the following: baseline TNFR-1, TNFR-2 and KIM-1 levels, TNFR-2/TNFR-1 ratio, KIM-1/TNFR-1 ratio, eGFR, UACR, HbA1C, systolic BP, AST, platelets, and serum calcium. […] Therefore, by determining proportion experiencing the composite kidney event within the categorical risk strata and used logistic regression, the relative odds of the endpoint for high vs. low risk and intermediate risk score strata can be determined. […]

Cc1ccc([C@@H]2O[C@H](CO)[C@@H](O)[C@H](O)[C@H]2O)cc1Cc1ccc(-c2ccc(F)cc2)s1 [canagliflozin, (2S,3R,4R,5S,6R)-2-[3-[[5-(4-fluorophenyl)thiophen-2-yl]methyl]-4-methylphenyl]-6-(hydroxymethyl)oxane-3,4,5-triol]
RR for composite kidney outcome, canagliflozin vs. placebo ([1]; all participants with baseline biomarkers, 95% CI 0.49, 0.99): 0.70
incidence of the composite kidney outcome ([1]; high risk KidneyIntelX stratum): 23.0% and 23.5%
incidence of the composite kidney outcome ([1]; intermediate risk KidneyIntelX stratum, mean follow-up 5.6 years): 9.5%
incidence of the composite kidney outcome ([1]; low risk KidneyIntelX stratum, mean follow-up 5.6 years): 3.6%
composite kidney outcome occurrence ([1]; canagliflozin group, all participants with baseline biomarkers (placebo 11.6%)): 8.9%
RR for the kidney outcome, canagliflozin vs. placebo ([1]; high-risk KidneyIntelX stratum, 95% CI 0.38-1.18): 0.67
absolute risk reduction (ARR) for composite kidney outcome ([1]; high-risk KidneyIntelX stratum, vs placebo arm 31.4%): 7.9%
RR for the kidney outcome, canagliflozin vs. placebo ([1]; intermediate KidneyIntelX stratum, 95% CI 0.36-0.98): 0.59
RR for the kidney outcome, canagliflozin vs. placebo ([1]; low-risk KidneyIntelX stratum, 95% CI 0.54-5.08): 1.65
difference in chronic eGFR slope, canagliflozin vs. placebo (protection for eGFR decline) ([2]; high risk KidneyIntelX stratum): 2.16 ml/min/1.73 m2
difference in chronic eGFR slope, canagliflozin vs. placebo ([2]; highest risk KDIGO stratum): 1.31 ml/min/1.73 m2
difference in chronic eGFR slope, canagliflozin vs. placebo (protection for eGFR decline) ([2]; low risk KidneyIntelX stratum): 0.66 ml/min/1.73 m2
difference in chronic eGFR slope, canagliflozin vs. placebo (protection for eGFR decline) ([2]; moderate/intermediate risk KidneyIntelX stratum): 1.52 ml/min/1.73 m2
duration of effect on KidneyIntelX ([3]; over follow-up, vs placebo (FIG. 24)): persisted over time until the end of follow-up
decrease of KidneyIntelX from baseline to one year ([3]; randomized to canagliflozin, 95% CI -6.9 to -3.9, placebo increased 6.2%, p<0.001): 5.4%
